Laboratory results published in US20180244611A1, “Modulators of the Cystic Fibrosis Transmembrane Conductance Regulator Protein and Methods of Use” (AbbVie S.à.r.l., priority 2017, published 2018).

What was measured:
F508delCFTR [1] = target: T1, F508delCFTR (Homo sapiens, UniProt P13569, DEL508-508); test: Cell Surface Expression-Horse Radish Peroxidase (CSE-HRP) assay, test compound without co-corrector; format: cell-based; settings: for Emax: maximum at any tested concentration, without co-corrector; for EC50: test compound without co-corrector;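 as to Emax: percent of on-plate 2 µM positive control corrector response over DMSO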
T1 construct: expressed in transfected cells; host or cells: CFBE41o- human lung-derived epithelial cells (CFBE41o-F508delCFTR-HRP), doxycycline-inducible
How it was run: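 CFBE41o- cells expressing F508delCFTR with HRP in the fourth exofacial loop, induced with 0.5 μg/mL doxycycline for 72 h at 37° C, then exposed to compound alone for 18-24 h at 33° C, 8-point 3-fold series from 20 μM. Surface HRP read by luminol luminescence, normalized to positive corrector control versus DMSO; EC50 from variable-slope sigmoidal fit of three replicate plates.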

F508delCFTR [2] = target: T1, F508delCFTR; test: Cell Surface Expression-Horse Radish Peroxidase (CSE-HRP) assay, test compound with co-corrector; format: cell-based; settings: for Maximum % activity (with co-corrector): maximum at any tested concentration;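 as to Maximum % activity (with co-corrector): percent of 2 µM positive control corrector over DMSO; co-corrector is that same compound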
How it was run: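 CFBE41o- cells expressing F508delCFTR with HRP in the fourth exofacial loop, induced with 0.5 μg/mL doxycycline for 72 h, then treated 18-24 h at 33° C. with compound (8 points, top 20 μM, 3-fold) plus 2 μM co-corrector. Surface HRP read by luminol luminescence; activity normalised to positive control, EC50 from variable-slope sigmoidal fit.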

[3] = normalized to positive control, with 2 μM co-corrector
[4] = normalized to on-plate positive control
[5] = CSE-HRP assay, test compound with 2 μM co-corrector
[6] = normalized to on-plate positive control, with 2 μM co-corrector

T1 sequence (P13569 with tags, fused parts or gaps DEL508-508): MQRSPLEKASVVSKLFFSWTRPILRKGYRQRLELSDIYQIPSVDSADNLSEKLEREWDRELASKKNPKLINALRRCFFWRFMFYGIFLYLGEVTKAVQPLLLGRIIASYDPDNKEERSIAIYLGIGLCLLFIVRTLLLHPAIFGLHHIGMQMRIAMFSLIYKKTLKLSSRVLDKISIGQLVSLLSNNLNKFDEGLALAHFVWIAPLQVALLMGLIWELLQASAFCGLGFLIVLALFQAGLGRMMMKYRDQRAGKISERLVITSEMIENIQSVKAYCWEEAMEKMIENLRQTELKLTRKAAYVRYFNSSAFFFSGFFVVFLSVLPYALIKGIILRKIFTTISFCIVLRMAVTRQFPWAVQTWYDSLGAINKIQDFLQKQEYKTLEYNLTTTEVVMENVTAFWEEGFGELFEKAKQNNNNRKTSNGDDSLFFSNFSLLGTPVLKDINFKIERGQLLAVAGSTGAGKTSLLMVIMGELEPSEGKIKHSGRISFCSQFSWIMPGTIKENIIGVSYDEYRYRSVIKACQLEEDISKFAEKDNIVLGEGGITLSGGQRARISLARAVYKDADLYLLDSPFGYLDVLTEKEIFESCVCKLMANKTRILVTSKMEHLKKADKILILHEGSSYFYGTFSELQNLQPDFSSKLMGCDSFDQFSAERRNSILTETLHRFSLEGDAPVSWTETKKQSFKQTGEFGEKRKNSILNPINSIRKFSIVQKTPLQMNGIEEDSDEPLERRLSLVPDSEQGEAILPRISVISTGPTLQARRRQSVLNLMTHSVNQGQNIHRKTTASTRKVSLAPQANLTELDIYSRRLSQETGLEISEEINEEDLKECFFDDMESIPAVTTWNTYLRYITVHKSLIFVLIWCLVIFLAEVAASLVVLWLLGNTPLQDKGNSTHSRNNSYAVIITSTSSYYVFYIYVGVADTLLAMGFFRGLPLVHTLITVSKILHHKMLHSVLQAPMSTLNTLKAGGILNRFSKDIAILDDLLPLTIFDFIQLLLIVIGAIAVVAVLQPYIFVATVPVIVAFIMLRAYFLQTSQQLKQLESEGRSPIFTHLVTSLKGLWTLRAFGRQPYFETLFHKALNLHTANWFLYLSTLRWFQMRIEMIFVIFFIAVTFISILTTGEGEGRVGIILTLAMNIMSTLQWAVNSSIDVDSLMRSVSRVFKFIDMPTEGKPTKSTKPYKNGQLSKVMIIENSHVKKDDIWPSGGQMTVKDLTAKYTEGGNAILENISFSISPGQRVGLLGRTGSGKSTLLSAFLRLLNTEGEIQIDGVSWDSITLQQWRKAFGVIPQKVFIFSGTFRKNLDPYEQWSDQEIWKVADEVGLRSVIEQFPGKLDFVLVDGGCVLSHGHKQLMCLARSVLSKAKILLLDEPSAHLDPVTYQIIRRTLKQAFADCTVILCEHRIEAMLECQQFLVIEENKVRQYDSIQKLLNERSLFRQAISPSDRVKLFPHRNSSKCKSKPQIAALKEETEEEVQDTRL

Row | Compound | Emax (F508delCFTR [1]; normalized to positive control) | EC50 (F508delCFTR [1]) | Maximum % activity (with co-corrector) (F508delCFTR [2]; [3]) | EC50 (F508delCFTR [2]; with 2 μM co-corrector) | EC50 (F508delCFTR [1]; CSE-HRP assay) | Emax (F508delCFTR [1]; [4]) | EC50 (F508delCFTR [2]; [5]) | Maximum % activity (with co-corrector) (F508delCFTR [2]; [6])
1 | O=C(NS(=O)(=O)c1cccc2ccccc12)C1(CCN2CCCC2)CCc2c(Cl)cccc21 (stereo not drawn) [Example III-111, 4-chloro-N-(naphthalene-1-sulfonyl)-1-[2-(pyrrolidin-1-yl)ethyl]-2,3-dihydro-1H-indene-1-carboxamide] | – | – | – | – | ≥ 10 µM | < 50% | 3 to 10 µM | + (<150)
2 | COCCN(C)CCC1(C(=O)NS(=O)(=O)c2cccc3ccccc23)CCc2c(Cl)cccc21 (stereo not drawn) [Example III-112, 4-chloro-1-{2-[(2-methoxyethyl)(methyl)amino]ethyl}-N-(naphthalene-1-sulfonyl)-2,3-dihydro-1H-indene-1-carboxamide] | – | – | – | – | 3 to 10 µM | < 50% | 3 to 10 µM | ++ (≥150 and <350)
3 | CCC1(C(=O)N(C)S(=O)(=O)c2cccc3ccccc23)CCc2c(Cl)cccc21 (stereo not drawn) [Example III-150, 4-chloro-1-ethyl-N-methyl-N-(naphthalene-1-sulfonyl)-2,3-dihydro-1H-indene-1-carboxamide] | – | – | – | – | ≥ 10 µM | < 50% | ≥ 10 µM | + (<150)
4 | COCC1(C(=O)NS(=O)(=O)c2cccc3ccccc23)CCc2c(Cl)cccc21 (stereo not drawn) [Example III-151, 4-chloro-1-(methoxymethyl)-N-(naphthalene-1-sulfonyl)-2,3-dihydro-1H-indene-1-carboxamide] | – | – | – | – | ≥ 10 µM | < 50% | ≥ 10 µM | + (<150)
5 | N#CCC1(C(=O)NS(=O)(=O)c2cccc3ccccc23)CCc2c(Cl)cccc21 (stereo not drawn) [Example III-155, 4-chloro-1-(cyanomethyl)-N-(naphthalene-1-sulfonyl)-2,3-dihydro-1H-indene-1-carboxamide] | – | – | – | – | 3 to 10 µM | < 50% | 3 to 10 µM | ++ (≥150 and <350)
6 | N#CC1(C(=O)NS(=O)(=O)c2cccc3ccccc23)CCCc2cccc(Cl)c21 (stereo not drawn) [Example III-157, 8-chloro-1-cyano-N-(naphthalene-1-sulfonyl)-1,2,3,4-tetrahydronaphthalene-1-carboxamide] | – | – | – | – | ≥ 10 µM | < 50% | 3 to 10 µM | ++ (≥150 and <350)
7 | COc1ccc2c(c1OC)CCCC2C(=O)NS(=O)(=O)c1ccccc1C (stereo not drawn) [II-9] | < 50% | ≥ 10 µM | ++ (≥150 and <350) | 3 to 10 µM | – | – | – | –
8 | Cc1ccccc1S(=O)(=O)NC(=O)C1CCc2ccccc21 (stereo not drawn) [II-11] | < 50% | ≥ 10 µM | + (<150) | 3 to 10 µM | – | – | – | –
9 | COc1cc2c(cc1OC)C(C(=O)NS(=O)(=O)c1ccccc1C)CCC2 (stereo not drawn) [II-15] | < 50% | ≥ 10 µM | + (<150) | 3 to 10 µM | – | – | – | –
10 | COc1ccc2c(c1)[C@@](C)(C(=O)NS(=O)(=O)c1ccccc1C)CC2 [II-18] | < 50% | 3 to 10 µM | ++ (≥150 and <350) | 3 to 10 µM | – | – | – | –
11 | Cc1ccccc1S(=O)(=O)NC(=O)C1(C)CCc2cccc(Cl)c21 (stereo not drawn) [II-19] | 50 to 150% | 3 to 10 µM | ++ (≥150 and <350) | 3 to 10 µM | – | – | – | –
12 | Cc1ccccc1S(=O)(=O)NC(=O)C1(C)CCc2c1ccc(F)c2F (stereo not drawn) [II-20] | < 50% | 3 to 10 µM | ++ (≥150 and <350) | 3 to 10 µM | – | – | – | –
13 | Cc1ccccc1S(=O)(=O)NC(=O)C1(C)CCc2ccccc21 (stereo not drawn) [II-21] | < 50% | 3 to 10 µM | ++ (≥150 and <350) | 3 to 10 µM | – | – | – | –
14 | Cc1ccc2c(c1)CCC2(C)C(=O)NS(=O)(=O)c1ccccc1C (stereo not drawn) [II-22] | 50 to 150% | 3 to 10 µM | ++ (≥150 and <350) | 3 to 10 µM | – | – | – | –
15 | CCc1ccccc1S(=O)(=O)NC(=O)C1CCc2c(OC)cccc21 (stereo not drawn) [II-24] | < 50% | 3 to 10 µM | ++ (≥150 and <350) | 3 to 10 µM | – | – | – | –
16 | CCc1ccccc1S(=O)(=O)NC(=O)C1CCc2c(Cl)cccc21 (stereo not drawn) [II-25] | 50 to 150% | 3 to 10 µM | ++ (≥150 and <350) | 3 to 10 µM | – | – | – | –

Continued, values first:

Row | Emax (F508delCFTR [1]; normalized to positive control) | EC50 (F508delCFTR [1]) | Maximum % activity (with co-corrector) (F508delCFTR [2]; [3]) | EC50 (F508delCFTR [2]; with 2 μM co-corrector) | EC50 (F508delCFTR [1]; CSE-HRP assay) | Emax (F508delCFTR [1]; [4]) | EC50 (F508delCFTR [2]; [5]) | Maximum % activity (with co-corrector) (F508delCFTR [2]; [6]) | Compound
17 | ≥ 150% | 3 to 10 µM | +++ (≥350) | < 3 µM | – | – | – | – | COc1cccc2c1C(C(=O)NS(=O)(=O)c1cccc3ccccc13)CCC2 (stereo not drawn) [Example II-115, 8-methoxy-N-(naphthalene-1-sulfonyl)-1,2,3,4-tetrahydronaphthalene-1-carboxamide]
18 | 50 to 150% | 3 to 10 µM | +++ (≥350) | 3 to 10 µM | – | – | – | – | O=C(NS(=O)(=O)c1cccc2ccccc12)C1CCCc2c(Cl)ccc(O)c21 (stereo not drawn) [Example II-128, 5-chloro-8-hydroxy-N-(naphthalene-1-sulfonyl)-1,2,3,4-tetrahydronaphthalene-1-carboxamide]
19 | 50 to 150% | 3 to 10 µM | +++ (≥350) | 3 to 10 µM | – | – | – | – | CC1(C(=O)NS(=O)(=O)c2ccccc2)CCc2c(Cl)cccc21 (stereo not drawn) [II-1]
20 | < 50% | 3 to 10 µM | ++ (≥150 and <350) | 3 to 10 µM | – | – | – | – | Cc1ccccc1S(=O)(=O)NC(=O)[C@@]1(C)CCc2ccc(Cl)cc21 [II-4]
21 | < 50% | 3 to 10 µM | ++ (≥150 and <350) | < 3 µM | – | – | – | – | Cc1ccccc1S(=O)(=O)NC(=O)[C@]1(C)CCc2ccc(Cl)cc21 [II-5]
22 | 50 to 150% | 3 to 10 µM | ++ (≥150 and <350) | 3 to 10 µM | – | – | – | – | O=C(NS(=O)(=O)c1ccccc1Cl)C1CCc2c(Cl)cccc21 (stereo not drawn) [II-6]
23 | < 50% | 3 to 10 µM | ++ (≥150 and <350) | 3 to 10 µM | – | – | – | – | Cc1ccccc1S(=O)(=O)NC(=O)C1CCCc2ccccc21 (stereo not drawn) [II-7]
24 | 50 to 150% | 3 to 10 µM | ++ (≥150 and <350) | 3 to 10 µM | – | – | – | – | COc1cccc2c1CCCC2C(=O)NS(=O)(=O)c1ccccc1C (stereo not drawn) [II-8]
25 | 50 to 150% | 3 to 10 µM | ++ (≥150 and <350) | 3 to 10 µM | – | – | – | – | Cc1ccccc1S(=O)(=O)NC(=O)C1CCCc2cccc(Cl)c21 (stereo not drawn) [II-10]
26 | < 50% | 3 to 10 µM | ++ (≥150 and <350) | 3 to 10 µM | – | – | – | – | Cc1ccccc1S(=O)(=O)NC(=O)C1CCCc2cc(F)ccc21 (stereo not drawn) [II-12]
27 | 50 to 150% | 3 to 10 µM | +++ (≥350) | 3 to 10 µM | – | – | – | – | COc1cccc2c1CCC[C@H]2C(=O)NS(=O)(=O)c1ccccc1C [II-13]
28 | < 50% | 3 to 10 µM | ++ (≥150 and <350) | 3 to 10 µM | – | – | – | – | Cc1ccccc1S(=O)(=O)NC(=O)[C@H]1CCCc2ccccc21 [II-14]
29 | < 50% | 3 to 10 µM | ++ (≥150 and <350) | 3 to 10 µM | – | – | – | – | COc1cccc2c1CC(C(=O)NS(=O)(=O)c1ccccc1C)C2 (stereo not drawn) [II-16]
30 | < 50% | 3 to 10 µM | ++ (≥150 and <350) | 3 to 10 µM | – | – | – | – | Cc1ccccc1S(=O)(=O)NC(=O)[C@@H]1CCCc2ccccc21 [II-17]
